Assay results published in ChEMBL document CHEMBL4257493, “Discovery of 7-hydroxyaporphines as conformationally restricted ligands for beta-1 and beta-2 adrenergic receptors” (Medchemcomm, 2018).

Target: Beta-2 adrenergic receptor (Homo sapiens, UniProt P07550)
Assay: Displacement of [3H]-CGP-12177 from human beta2-adrenergic receptor

Chain of Beta-2 adrenergic receptor (P07550 whole entry): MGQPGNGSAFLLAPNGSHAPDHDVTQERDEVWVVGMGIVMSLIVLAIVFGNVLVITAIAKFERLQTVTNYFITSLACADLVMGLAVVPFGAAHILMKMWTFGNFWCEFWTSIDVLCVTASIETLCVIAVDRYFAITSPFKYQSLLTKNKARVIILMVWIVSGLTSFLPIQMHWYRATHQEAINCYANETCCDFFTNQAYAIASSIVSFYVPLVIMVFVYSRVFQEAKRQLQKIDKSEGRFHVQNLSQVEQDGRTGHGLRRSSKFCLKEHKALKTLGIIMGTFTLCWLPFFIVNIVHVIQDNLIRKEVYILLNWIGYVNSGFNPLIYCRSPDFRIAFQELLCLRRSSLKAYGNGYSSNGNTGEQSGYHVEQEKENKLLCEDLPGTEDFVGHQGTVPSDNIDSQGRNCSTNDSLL

SMILES	IC50
COc1cc2c3c(c1OC)-c1ccccc1[C@@H](O)[C@]3(C)NCC2 (relative stereo)	0.02 µM
COc1ccc(CCNC[C@H](O)c2ccccc2)cc1OC	8.4 µM
